Test results reported in patent US5270339A, “Phenoxybenzene derivative” (Kanagafuchi Kagaku Kogyo Kabushiki Kaisha, priority 1991, dated 1993).
Where a name gives a salt, the structure may show the parent alone.

Columns and labels:
[1] = Acute toxicity test, oral; format: in vivo, ddY male mice; details: mouse, in vivo, ddY mice, 2 weeks observation
Description: With respect to the compounds 1 to 86 shown in Table 1 as test compounds, the acute toxicity was examined using ddY mice according to the following method.
In each group, six male ddY mice weighing 27 to 30 g were employed. The compounds 1 to 86 suspended in an aqueous solution of 0.5% sodium carboxymethylcellulose were administered orally in a volume of 0.1 ml/10 g body weight. […] The LD50 (mg/kg) values were estimated from the ratio of the number of dead mice to the number of mice used.

[2] = system: experimental amnesia in mice induced by cycloheximide; assay: Anti-amnesic effect: passive avoidance task (step-through), cycloheximide-induced amnesia; format: in vivo, ddY male mice; details: for Step-through latency: mean of group; for responders at 3 mg/kg / responders at 1 mg/kg: Mus musculus, mice with latency > 100 seconds, read-out: Ratio of memory
Description: As experimental animals, Wistar male rats and ddY male mice were used for the tests after they were housed for a week under every 12 hours' dark-light cycle at room temperature of 24° to 26° C.
The effect on experimental amnesia in mice induced by cycloheximide was evaluated.
The experiment was carried out using an experimental apparatus of passive avoidance task for mice (made by Ohara-ika-sangyo K. K.) comprising a box divided into the two compartments of dark and light. That is, the dark compartment [a box having a reverse trapezoid cross section (height: 8 cm, base line: 5 cm, oblique line: 9.5 cm) and having the length of 14 cm] was shield from a light with a black plastic case and was floored with stainless grids for giving an electrical shock so that an electricity might be turned on a determined time after interception of a photobeam placed in the dark compartment. The light compartment made of transparent plastic (a box of the same shape as that of the dark compartment having the length of 16 cm, lightened from a location spaced 25 cm above by a 60 W electric lamp) was provided adjacent to the dark compartment. Between the two compartments, there was provided a circular entrance having the diameter of 3 cm with a guillotine door which could be opened and closed. By using the above-mentioned dark-light box, the experiment was carried out according to the following procedure.
A mouse (5 week-old) previously conditioned in the dark-light box was put in the light compartment and the guillotine door was opened. Three seconds after the mouse moved into the dark compartment and interrupted the photobeam, 0.3 mA electrical shock was given to limbs for 3 seconds from the floor grid (aquisition trial). Just after the mouse rushed into the light compartment, the door was shut and the […] in the light compartment was picked out to return to his home cage. After 24 hours, the mouse was placed again in the light compartment and the period from the opening of the guillotine door to the time the mouse completely entered the dark compartment was recorded maximally 300 seconds as a step-through latency (retention trial).
The amnesia was induced by subcutaneous injection of cycloheximide (120 mg/kg) dissolved in saline 10 minutes before the aquisition trial. As a control, the same amount of saline alone was administered. […]
A ratio of number of mice showing the step-through latency of more than 100 seconds in the group was defined as a ratio of memory for convenience's sake.
The step-through latency in Table 2 was the mean value for each treated group.

SMILES	LD50 at 336 h [1] [mg/kg]	Step-through latency ([2]; 3 mg/kg oral) [s]	responders at 3 mg/kg ([2]; 3 mg/kg oral) [%]	Step-through latency ([2]; 1 mg/kg oral) [s]	responders at 1 mg/kg ([2]; 1 mg/kg oral) [%]
O=C1NCCC1=Cc1ccc(Oc2ccccc2)cc1 [Compound 2]	≥ 500	188	75		
O=C1NCCC1=Cc1ccccc1Oc1ccccc1 [Compound 3]	≥ 500	173	75		
Cc1ccc(Oc2cccc(C=C3CCNC3=O)c2)cc1 [Compound 4]	≥ 500				
COc1ccc(Oc2cccc(C=C3CCNC3=O)c2)cc1 [Compound 5]	≥ 500	134	50		
O=C1NCCC1=Cc1cccc(Oc2ccc(Cl)cc2)c1 [Compound 6]	≥ 500	101	31		
O=C1NCCC1=Cc1ccc(Oc2ccccc2)c([N+](=O)[O-])c1 [Compound 7]	≥ 500	113	50		
Nc1cc(C=C2CCNC2=O)ccc1Oc1ccccc1 [Compound 8]	≥ 500	118	38		
CN1CCC(=Cc2cccc(Oc3ccccc3)c2)C1=O [Compound 9]	≥ 500	151	75		
CCCCN1CCC(=Cc2cccc(Oc3ccccc3)c2)C1=O [Compound 12]	≥ 500	152	63		
CCCCCCN1CCC(=Cc2cccc(Oc3ccccc3)c2)C1=O [Compound 13]	≥ 500	132	38		
CCN1CCC(=Cc2ccc(Oc3ccccc3)cc2)C1=O [Compound 14]	≥ 500	100	25		
CCN1CCC(=Cc2cccc(Oc3ccc(C)cc3)c2)C1=O [Compound 15]	≥ 500				
O=C1C(=Cc2cccc(Oc3ccccc3)c2)CCN1C1CC1 [Compound 17]	≥ 500				
CCN1CCC(=Cc2ccc(Oc3ccccc3)cc2)C1 [Compound 18]	≥ 500				
CCN1CCC(=Cc2cccc(Oc3ccc(C)cc3)c2)C1 [Compound 19]	≥ 500			177	75
C=CN1CCC(=Cc2cccc(Oc3ccccc3)c2)C1=O [Compound 21]	≥ 500				
COCCN1CCC(=Cc2cccc(Oc3ccccc3)c2)C1=O [Compound 23]	≥ 500	71	50		
O=C1C(=Cc2cccc(Oc3ccccc3)c2)CCN1CCOC1CCCCO1 (stereo not drawn) [Compound 24]	≥ 500	109	38		
O=C1C(=Cc2cccc(Oc3ccccc3)c2)CCN1CCO [Compound 25]	≥ 500				
O=C1C(=Cc2cccc(Oc3ccccc3)c2)CCN1CCCl [Compound 27]	≥ 500				
CCOC(=O)CN1CCC(=Cc2cccc(Oc3ccccc3)c2)C1=O [Compound 28]	≥ 500	100	50		
O=C(O)CN1CCC(=Cc2cccc(Oc3ccccc3)c2)C1=O [Compound 29]	≥ 500				
NC(=O)N1CCC(=Cc2cccc(Oc3ccccc3)c2)C1=O [Compound 30]	≥ 500				
COc1ccc(NC(=O)N2CCC(=Cc3cccc(Oc4ccccc4)c3)C2=O)cc1 [Compound 31]	≥ 500	100	50		
NC(=O)CCN1CCC(=Cc2cccc(Oc3ccccc3)c2)C1=O [Compound 33]	≥ 500				
CNC(=O)CN1CCC(=Cc2cccc(Oc3ccccc3)c2)C1=O [Compound 34]	≥ 500				
CN(C)C(=O)CN1CCC(=Cc2cccc(Oc3ccccc3)c2)C1=O [Compound 35]	≥ 500			103	50

SMILES	LD50 at 336 h [1] [mg/kg]	Step-through latency ([2]; 3 mg/kg oral) [s]	responders at 3 mg/kg ([2]; 3 mg/kg oral) [%]	Step-through latency ([2]; 1 mg/kg oral) [s]	responders at 1 mg/kg ([2]; 1 mg/kg oral) [%]
CN(C)CCNC(=O)CN1CCC(=Cc2cccc(Oc3ccccc3)c2)C1=O [Compound 36]	≥ 500			163	75
N#CCN1CCC(=Cc2cccc(Oc3ccccc3)c2)C1=O [Compound 37]	≥ 500			110	50
CN(C)N1CCC(=Cc2cccc(Oc3ccccc3)c2)C1=O [Compound 38]	≥ 500			100	50
NCCN1CCC(=Cc2cccc(Oc3ccccc3)c2)C1=O [Compound 39]	≥ 500				
CN(C)CCN1CCC(=Cc2cccc(Oc3ccccc3)c2)C1=O [Compound 40]	≥ 500			116	50
CC(=O)N1CCC(=Cc2cccc(Oc3ccccc3)c2)C1=O [Compound 41]	≥ 500	80	25		
O=C1C(=Cc2cccc(Oc3ccccc3)c2)CCN1C(=O)c1ccccc1 [Compound 42]	≥ 500			80	25
COc1ccc(C(=O)N2CCC(=Cc3cccc(Oc4ccccc4)c3)C2=O)cc1 [Compound 43]	≥ 500	179	100		
O=C(C=Cc1ccccc1)N1CCC(=Cc2cccc(Oc3ccccc3)c2)C1=O [Compound 44]	≥ 500	132	38		
CC(=O)CN1CCC(=Cc2cccc(Oc3ccccc3)c2)C1=O [Compound 45]	≥ 500			169	50
O=C1C(=Cc2cccc(Oc3ccccc3)c2)CCN1c1ccccc1 [Compound 46]	≥ 500	172	75		
O=C1C(=Cc2cccc(Oc3ccccc3)c2)CCN1c1ccc(F)cc1F [Compound 47]	≥ 500				
O=C1C(=Cc2cccc(Oc3ccccc3)c2)CCN1Cc1ccccc1 [Compound 48]	≥ 500	117	63		
COc1ccc(CN2CCC(=Cc3cccc(Oc4ccccc4)c3)C2=O)cc1 [Compound 49]	≥ 500			102	50
O=C1C(=Cc2cccc(Oc3ccccc3)c2)CCN1Cc1ccc(Cl)cc1 [Compound 50]	≥ 500	100	50		
O=C1C(=Cc2cccc(Oc3ccccc3)c2)CCN1CCc1ccccc1 [Compound 51]	≥ 500				
CC1CC(=Cc2cccc(Oc3ccccc3)c2)C(=O)N1 (stereo not drawn) [Compound 52]	≥ 500	120	50		
CCN1C(=O)C(=Cc2cccc(Oc3ccccc3)c2)CC1C (stereo not drawn) [Compound 53]	≥ 500	114	50		
CCN1C(=O)C(=Cc2cccc(Oc3ccccc3)c2)CC1O (stereo not drawn) [Compound 54]	≥ 500				
COC1CC(=Cc2cccc(Oc3ccccc3)c2)C(=O)N1 (stereo not drawn) [Compound 55]	≥ 500	80	25		
CCOC1CC(=Cc2cccc(Oc3ccccc3)c2)C(=O)N1 (stereo not drawn) [Compound 56]	≥ 500	129	63		
CCOC1CC(=Cc2cccc(Oc3ccccc3)c2)C(=O)N1CC (stereo not drawn) [Compound 57]	≥ 500	157	50		
CC1CNC(=O)C1=Cc1cccc(Oc2ccccc2)c1 (stereo not drawn) [Compound 60]	≥ 500				
C(=C1CCN(CCOC2CCCCO2)C1)c1cccc(Oc2ccccc2)c1 (stereo not drawn) [Compound 70]	≥ 500				
CCOC(=O)N1CCC(=Cc2cccc(Oc3ccccc3)c2)C1 [Compound 72]	≥ 500				
CCC1NCCC1=Cc1cccc(Oc2ccccc2)c1 (stereo not drawn) [Compound 77]	≥ 500				
C1=Cc2cccc(OCC3CNCCO3)c2C1 (stereo not drawn) [Indeloxazine hydrochloride, reference compound]		131	43		
